Measured values reported in PubChem BioAssay (NCI).
Values joined by “and” are separate entries in the source; they are usually repeats but may differ in a detail not shown here. Equal entries are not always repeated.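 Cells were grown in 96-well plates and exposed to each compound for 48 hours at five concentrations; endpoints were interpolated linearly between bracketing concentrations, or set to the highest concentration if not reached. Abbreviation: GI50, concentration required for 50% inhibition of growth. TGI marks complete inhibition of growth.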

Tests used:
Assay in all cases: growth of human tumour cells (NCI), 48 h
HCC-2998 colon = tested on: HCC-2998 colon
SW-620 colon = tested on: SW-620 colon
MDA-MB-231 breast = tested on: MDA-MB-231 breast
SN12C renal = tested on: SN12C renal
DU-145 prostate = tested on: DU-145 prostate
MALME-3M melanoma = tested on: MALME-3M melanoma
NCI-H522 lung = tested on: NCI-H522 lung
NCI-H226 lung = tested on: NCI-H226 lung
SK-MEL-5 melanoma = tested on: SK-MEL-5 melanoma
HT29 colon = tested on: HT29 colon

Structure (SMILES)	TGI (HCC-2998 colon)	TGI (SW-620 colon)	GI50 (MDA-MB-231 breast)	TGI (MDA-MB-231 breast)	TGI (SN12C renal)	TGI (DU-145 prostate)	TGI (MALME-3M melanoma)	TGI (NCI-H522 lung)	TGI (NCI-H226 lung)	TGI (SK-MEL-5 melanoma)	TGI (HT29 colon)	GI50 (HCC-2998 colon)	GI50 (SW-620 colon)	GI50 (SN12C renal)	GI50 (DU-145 prostate)	GI50 (MALME-3M melanoma)	GI50 (NCI-H522 lung)	GI50 (NCI-H226 lung)	GI50 (HT29 colon)
COc1cn2c(cc1=O)COc1ccc(-c3ccccc3)cc1-2	> 100 µM	> 100 µM	> 100 µM	> 100 µM	> 100 µM	> 100 µM	> 84.1 µM	> 100 µM	> 100 µM	> 76 µM	> 100 µM	–	–	–	–	–	–	–	–
CN(C)c1ccc(/C=C(\NC(=O)c2ccccc2)C(=O)Nc2ccccc2C(=O)NN2C(=O)CSC2c2ccc(N(C)C)cc2)cc1 (stereo not given)	21.4 µM	> 100 µM	–	> 100 µM	> 100 µM	> 100 µM	> 100 µM	> 100 µM	> 100 µM	> 100 µM	> 100 µM	–	–	–	–	–	–	–	–
c1ccc2c(c1)CC1c3[nH]c4ccccc4c3CCN21 (stereo not given)	> 10 µM	> 10 µM	–	> 10 µM	> 10 µM	> 10 µM	> 10 µM	> 10 µM	> 10 µM	> 10 µM	> 10 µM	–	–	–	–	–	–	–	–
COc1cc2c3c(n(CCCNCCO)c(=O)c2cc1OC)-c1cc2c(cc1C3=O)OCO2	1.97 µM and 11.1 µM	2.6 µM and 2.03 µM	1.09 µM	2.03 µM and 5.18 µM	1.19 µM	–	4.06 µM and 2 µM	0.966 µM and 3.8 µM	1.46 µM and 0.269 µM	1.51 µM and 1.56 µM	0.589 µM	0.978 µM	0.0228 µM	< 0.0119 µM	0.0299 µM	0.252 µM and 0.143 µM	0.0144 µM	0.0474 µM	0.0502 µM
Cn1c(N)c(/C=N/NC(=O)CC#N)c(=O)n(C)c1=O	> 100 µM	> 100 µM	–	> 100 µM	> 100 µM	> 100 µM	> 100 µM	> 100 µM	> 100 µM	> 100 µM	> 100 µM	–	–	–	–	–	–	–	–
CC(C)=CC(=O)O[C@@H]1CC(C)(C)CC2C3=CCC4[C@]56CC[C@](O)(OC5)C(C)(C)C6CC[C@@]4(C)C3(C)CC[C@]21C(=O)O (stereo not given in full)	> 100 µM	> 100 µM	–	> 100 µM	> 100 µM	> 100 µM	> 100 µM	> 100 µM	> 100 µM	> 100 µM	> 100 µM	–	–	–	–	–	–	–	–
CCCCC[C@H](O)[C@H](C)C=C1SCCCS1	> 100 µM	> 100 µM	–	> 100 µM	> 100 µM	> 100 µM	> 100 µM	> 100 µM	> 100 µM	> 100 µM	> 100 µM	–	–	–	–	–	–	–	–
COc1ccc(Cn2nc(OCc3ccccn3)c3cc([N+](=O)[O-])ccc32)cc1	> 100 µM	> 100 µM	–	> 100 µM	> 100 µM	> 100 µM	> 100 µM	> 100 µM	> 100 µM	> 100 µM	> 100 µM	–	–	–	–	–	–	–	–
CN(C)c1ccc(-c2nc(-c3cc4c(ccc5ccccc54)oc3=O)cs2)cc1	> 100 µM	> 100 µM	–	> 100 µM	> 100 µM	> 100 µM	> 100 µM	> 100 µM	> 100 µM	> 100 µM	> 100 µM	–	–	–	–	–	–	–	–
CC1(C)OC[C@@H](/C=C\CCO[Si](c2ccccc2)(c2ccccc2)C(C)(C)C)N1C(=O)c1ccccc1	21.4 µM	> 100 µM	–	38.4 µM	29.9 µM	95.9 µM	–	18.8 µM	25.5 µM	12 µM	17.3 µM	–	–	–	–	–	–	–	–
O=C(Cn1c2ccc(Br)cc2c2nc3ccccc3nc21)NC1CCCCC1	> 100 µM	> 100 µM	–	> 100 µM	> 100 µM	> 100 µM	> 100 µM	> 100 µM	> 100 µM	> 100 µM	> 100 µM	–	–	–	–	–	–	–	–
O=C1c2cc(Cl)ccc2-n2c(noc2=O)C2CSCN12 (stereo not given)	> 100 µM	> 100 µM	–	> 100 µM	> 100 µM	> 100 µM	> 100 µM	> 100 µM	> 100 µM	> 100 µM	> 100 µM	–	–	–	–	–	–	–	–
Cc1ccc(Nc2nc(=O)[nH]c(=O)[nH]2)cc1N	> 100 µM	> 100 µM	–	> 100 µM	> 100 µM	> 100 µM	> 100 µM	> 100 µM	> 100 µM	> 100 µM	> 100 µM	–	–	–	–	–	–	–	–
COc1cc(C(=O)Nc2nnc(S(N)(=O)=O)s2)cc(OC)c1OC	> 100 µM	> 100 µM	–	> 100 µM	> 100 µM	> 100 µM	> 100 µM	> 100 µM	> 100 µM	> 100 µM	–	–	–	–	–	–	–	–	–
CCCCCCCCCCCCCCCCOCC(CC(F)(F)P(=O)(O)O)OC(C)=O (stereo not given)	> 50 µM	> 50 µM	–	> 50 µM	> 50 µM	> 50 µM	> 50 µM	> 50 µM	> 50 µM	> 50 µM	> 50 µM	–	–	–	–	–	–	–	–
O=C1c2ccccc2S(=O)(=O)c2ccccc21	> 100 µM	> 100 µM	–	> 100 µM	> 100 µM	> 100 µM	> 100 µM	> 100 µM	> 100 µM	> 100 µM	> 100 µM	–	–	–	–	–	–	–	–
CSc1c(C(C)=O)c(O)n(-c2ccc(Cl)cc2)c(=O)c1C#N	> 100 µM	> 100 µM	–	> 100 µM	> 100 µM	> 100 µM	> 100 µM	21.9 µM	> 100 µM	> 100 µM	> 100 µM	–	–	–	–	–	–	–	–
O=c1oc2ccccc2cc1-c1nc2ccc([N+](=O)[O-])cc2o1	> 100 µM	> 100 µM	–	> 100 µM	> 100 µM	> 100 µM	> 100 µM	> 100 µM	> 100 µM	> 100 µM	> 100 µM	–	–	–	–	–	–	–	–
COc1ccc(/C=N/Nc2[nH]c(=S)nc3[nH]ncc23)cc1	> 100 µM	> 100 µM	–	> 100 µM	> 100 µM	> 100 µM	99.4 µM	79.9 µM	> 100 µM	> 100 µM	> 100 µM	–	–	–	–	–	–	–	–
Oc1ccc(-c2c3c(nc4c2CCc2ccc(Br)cc2-4)-c2cc(Br)ccc2CC3)cc1	40.1 µM	–	–	34.5 µM	43.6 µM	59.5 µM	50.4 µM	42.7 µM	48 µM	35.7 µM	–	–	–	–	–	–	–	–	–
O=C1CCC2(CC1)Cc1ccccc1C2O (stereo not given)	> 100 µM	> 100 µM	–	> 100 µM	> 100 µM	> 100 µM	> 100 µM	> 100 µM	> 100 µM	> 100 µM	> 100 µM	–	–	–	–	–	–	–	–
